The values that follow come from patent US5272078A, “CDNA encoding the type I iodothyronine 5'deiodinase” (Brigham and Women's Hospital, priority 1992, dated 1993).

A word on the Inhibition: it is the percentage by which the read-out fell short of the control. The low end stands for a weak effect, the high end for a strong effect.

In assay [1] the target is T1, Human Type I 5'-Deiodinase (Homo sapiens, UniProt P49895).
T1 construct: expressed in transfected cells; host or cells: COS-7 cells (cell sonicate)
T1 sequence (P49895 1-249): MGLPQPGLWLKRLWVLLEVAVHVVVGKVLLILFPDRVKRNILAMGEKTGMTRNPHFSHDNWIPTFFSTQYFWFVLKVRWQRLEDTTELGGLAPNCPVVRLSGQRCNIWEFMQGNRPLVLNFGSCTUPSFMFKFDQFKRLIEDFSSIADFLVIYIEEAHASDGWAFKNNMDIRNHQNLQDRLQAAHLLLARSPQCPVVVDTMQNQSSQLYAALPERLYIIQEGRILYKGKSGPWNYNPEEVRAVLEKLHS
The assay is described as follows: Kinetics of rT3 deiodination, enzyme transiently expressed in COS-7 cells. Type of assay: biochemical.
Description: Cell sonicate protein concentration was approximately 12 mg ml^-1 by Biorad determination using gamma globulin as a standard.
Incubations were for 30 minutes at 37° C. and ^125 I was quantitated as previously described (Berry, et al., Mol. Endocrinol. 4:743-748 (1990)).

For assay [2], the target named is T2, Type I iodothyronine 5' deiodinase, TGA (selenocysteine-126) (Rattus norvegicus, UniProt P24389).
T2 construct: the full length protein terminates at the UAG codon at nucleotide 778; expressed in transfected cells; host or cells: JEG-3 human choriocarcinoma cells, vector CDM-8 (homogenates, microsomal fractions or sonicates)
T2 sequence (P24389 1-257): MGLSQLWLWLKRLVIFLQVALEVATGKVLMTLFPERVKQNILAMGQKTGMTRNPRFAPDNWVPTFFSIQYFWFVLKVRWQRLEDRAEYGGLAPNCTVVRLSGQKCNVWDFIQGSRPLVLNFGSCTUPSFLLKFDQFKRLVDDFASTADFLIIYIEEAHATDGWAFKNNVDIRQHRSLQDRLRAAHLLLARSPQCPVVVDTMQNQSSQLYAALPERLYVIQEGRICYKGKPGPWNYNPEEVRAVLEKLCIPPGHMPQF
Description: Sensitivity to gold thioglucose, wild type (TGA) G21 cDNA, JEG cell sonicates. It counts as biochemical. To be noted: for Deiodinase Activity of JEG cell sonicates: 10 mM DTT, 300 nM 125I rT3, 30 min. An excerpt:
(§1) Wild type (TGA) or cysteine mutant (TGT) G21 cDNA in CDM-8 was transfected into JEG-3 as described in Example III. […] 1β-D-Thioglucose (5 μm) had no effect on enzyme activity. 1.

The target of assay [3] is T3, human 5' deiodinase (Homo sapiens, UniProt P49895).
T3 sequence (P49895 1-249): T1 sequence (P49895 1-249)
Description: Affinity labelling with bromoacetyl T3, human enzyme. Type of assay: binding. Also on record: expressed in transfected cells; host or cells: COS-7 cells (cell sonicate). How it is done: (§2) The final product in 2 ml of acidified 20% ethanol was diluted with 3 volumes of water and purified by chromatography on a column (2.5×0.8cm) of Sephadex LH-20 (Pharmacia). […] Densitometric quantitation of the autoradiographs was performed by a Molecular Dynamics computing densitometer (Sunnyvale, Calif.).

A further assay has as its target T4, rat 5' deiodinase (Rattus norvegicus, UniProt P24389).
T4 construct: the full length protein terminates at the UAG codon at nucleotide 778; expressed in transfected cells, vector CDM-8; cell sonicate
T4 sequence (P24389 1-257): T2 sequence (P24389 1-257)
The assay is described as follows: Affinity labelling with bromoacetyl T3, rat enzyme. It counts as binding. How it is done: as §2

Another assay deals with T4 to T3 conversion. Conditions: cited from earlier work.
The next assay deals with T5, Type I 5' deiodinase (Rattus norvegicus, UniProt P24389).
T5 construct: the full length protein terminates at the UAG codon at nucleotide 778; expressed in transfected cells; host or cells: JEG-3 human choriocarcinoma cells, vector CDM-8 (homogenates, microsomal fractions or sonicates)
T5 sequence (P24389 1-257): T2 sequence (P24389 1-257)
Description: rT3 deiodination by clone G21 enzyme expressed in transfected JEG-3 cells. Type of assay: biochemical. Conditions: for mode of inhibition: rT3 as substrate. An excerpt:
To verify that this clone encoded the Type I 5' deiodinase, it was expressed in JEG-3 human choriocarcinoma cells following DNA transfection.
To confirm that this clone encoded Type I 5' deiodinase, it was expressed in JEG-3 human choriocarcinoma cells following DNA transfection.

Assay [4] has as its target T3, human 5' deiodinase. To be noted: with or without 0.5 mM PTU; 100 nM 125I-T4, 25 mM DTT, 16 hours. How it is done: T4, T3 and I^- were separated by paper chromatography and identified by staining of chromatographed unlabelled standards. The ^125 I content of the products was quantitated by counting the paper strips in a gamma scintillation counter. All assays were performed in duplicate. Kinetic analyses were performed as previously described (Berry, et al., J. Biol. Chem. 266:14155-14158 (1991)) by drawing double reciprocal plots of deiodination rate vs. substrate concentration. […] Since the enzyme is not pure, all kinetic constants are apparent.

Assay [5] addresses T6, Liver Microsomal Human Type I 5'-Deiodinase (Homo sapiens, UniProt P49895).
T6 construct: those of the human liver microsomal enzyme; from tissue; host or cells: human liver microsomes
T6 sequence (P49895 1-249): T1 sequence (P49895 1-249)
Conditions: cited from earlier work.

Another assay addresses T7, Type I deiodinase (Rattus norvegicus, UniProt P24389).
T7 sequence (P24389 1-257): T2 sequence (P24389 1-257)
Conditions: cited from earlier work.

Assay [6] addresses T8, rat 5' deiodinase cysteine mutant (Rattus norvegicus, UniProt P24389, U126C).
T8 sequence (P24389 1-257 U126C): T2 sequence (P24389 1-257) with U126C
To be noted: cited from earlier work.

The target in the next assay is T9, 5' deiodinase activity (Rattus norvegicus, UniProt P24389).
T9 construct: host or cells: rat, in vivo
T9 sequence (P24389 1-257): T2 sequence (P24389 1-257)
Conditions: rats; cited from earlier work.

Assay [7] deals with T10, Type I iodothyronine 5' deiodinase, TGT (cysteine-126) mutant (Rattus norvegicus, UniProt P24389, U126C).
T10 construct: expressed in transfected cells; host or cells: JEG-3 cells, vector CDM-8 (cell sonicate)
T10 sequence (P24389 1-257 U126C): T2 sequence (P24389 1-257) with U126C
Description: Sensitivity to gold thioglucose, cysteine mutant (TGT) G21 cDNA, JEG cell sonicates. It counts as biochemical. To be noted: for Deiodinase Activity of JEG cell sonicates: 10 mM DTT, 300 nM 125I rT3, 30 min.
Text: as §1

[8] abbreviates: PTU 100 μM, read-out: decrease in BrAcT3 labelling.

Numbering of substitutions follows the chain as printed. Values joined by “and” are separate entries in the source; they are usually repeats but may differ in a detail not shown here. Equal entries are not always repeated. Where two headings read alike, the source gives them in different places.

On to `O[C@H](CS)[C@H](O)CS` (racemic) [DTT, dithiothreitol], for which, in assay [1] (apparent), the Kb is 5000 µM.

On to `OC[C@H]1O[C@@H](S)[C@H](O)[C@@H](O)[C@@H]1O` [1β-D-Thioglucose], for which the “effect on enzyme activity” value in assay [2] (5 μm) is listed as “no effect”.

Take `O=C(CBr)NC(Cc1cc(I)c(Oc2ccc(O)c(I)c2)c(I)c1)C(=O)O` (centres unmarked) [BrAcT3]: the “BrAcT3 labelling of the ~28 kDa protein” value at human 5' deiodinase [3] (excess cold BrAcT3 (364 nM)) and on rat 5' deiodinase (excess cold BrAcT3 (364 nM)) was “inhibited” throughout.

`CCCc1cc(=O)[nH]c(=S)[nH]1` [PTU, propylthiouracil]: in the assay with T4 to T3 conversion (100 mg, euthyroid subjects), the “131I release from T4” value is on record as “inhibition”. Also, in the assay with T4 to T3 conversion (hyperthyroid patients), the “T4 to T3 conversion” value was “dose-related inhibition”. The Ki in [1] (Ki (PTU · DTT), competitive with respect to DTT, apparent) was 0.014 µM; in assay [1] (Ki (PTU · rT3), 10 mM DTT, uncompetitive inhibitor of rT3 deiodination, apparent) it was 0.17 µM; in assay [5] (read-out: Ki (PTU · DTT)) it was 0.1 µM; in [5] (read-out: Ki (PTU · rT3), 5 mM DTT) it was 0.28 µM. Also, the inhibition at 100 µM on human 5' deiodinase [3] (setting [8]) and on rat 5' deiodinase (setting [8]) was 35 to 40% in each case. Moreover, the inhibition at 0.5 µM against Type I 5' deiodinase (0.5 μM PTU) was over 50%. Besides, the mode of inhibition result at Type I 5' deiodinase is “competitive inhibitor of DTT”. Besides, at human 5' deiodinase [4], the “T4 to T3 conversion, sensitivity to PTU” value is “PTU-sensitive”.

On to `N[C@@H](Cc1cc(I)c(Oc2cc(I)c(O)c(I)c2)c(I)c1)C(=O)O` [T4, thyroxine], for which the Ki in assay [1] came to 6.2 µM. On human 5' deiodinase [3] (T4 30 μM), the “BrAcT3 labelling of the ~28 kDa protein” value is “does not inhibit”. For the same compound, the inhibition at 30 µM on rat 5' deiodinase (T4 30 μM, read-out: reduction of BrAcT3 labelling) was determined as 67%. Further, the mode of inhibition result on Type I 5' deiodinase is given as “competitive inhibitor of rT3 deiodination”.

Consider `N[C@@H](Cc1ccc(Oc2cc(I)c(O)c(I)c2)c(I)c1)C(=O)O` [rT3, 3,3',5'-triiodothyronine], for which the “Vmax/Km ratio for rT3 higher than for T4” value on Type I deiodinase is reported as 1000 fold. Besides, the “Vmax (rT3)” value in [1] (10 mM DTT) is 63.2 ± 16.4 pmol/min/mg and 63.2 pmol/min/mg; in assay [5] (5 mM DTT) it was 128 to 242 pmol/min/mg. Besides, the “BrAcT3 labelling of the ~28 kDa protein” value at human 5' deiodinase [3] (rT3 3 μM and 10 μM) was “inhibited”; at rat 5' deiodinase (rT3 3 μM and 10 μM) it was “inhibited”. The “apparent Km of the cysteine mutant higher than wild type” value in assay [6] is given as 10 fold.

Consider gold, for which the “5' deiodinase activity after administration” value at 5' deiodinase activity is on record as “Inhibition”.

Regarding gold thioglucose [GTG], in assay [7], the “sensitivity to inhibition compared with the native enzyme” value is reported as “much less sensitive”. The Inhibition is on record as 0% in [7] (GTG 10 nM); 13% in assay [7] (GTG 100 nM); 0% in [2] (GTG 1 nM); 43% in assay [2] (GTG 10 nM); ~ 50% in assay [2] (GTG 10 nM, listed as gold thioglucose); 95% in assay [2] (GTG 100 nM). For the same compound, the “Deiodinase Activity of JEG cell sonicates” value is listed as 1.3 pmol rT3 min^-1 mg protein^-1 in [7] (GTG 10 nM); 1.1 pmol rT3 min^-1 mg protein^-1 in [7] (GTG 100 nM); 7.0 pmol rT3 min^-1 mg protein^-1 in assay [2] (GTG 1 nM); 4.0 pmol rT3 min^-1 mg protein^-1 in assay [2] (GTG 10 nM); 0.95 pmol rT3 min^-1 mg protein^-1 in assay [2] (GTG 100 nM). Besides, the Ki in assay [1] (read-out: Ki (GTG · rT3), 10 mM DTT, competitive, apparent) was 0.0047 µM. Besides, the “BrAcT3 labelling of the ~28 kDa protein” value on human 5' deiodinase [3] (100 nM gold thioglucose) and at rat 5' deiodinase (100 nM gold thioglucose) was “inhibited” in each case.
